Assay results taken from ChEMBL document CHEMBL3045835, “Comparative study of conventional and microwave-assisted synthesis of some Schiff bases and their potential as antimicrobial agents” (2012).
Converted amounts (≈) assume the structure as drawn.

What was measured:
Format in all cases: functional
Pseudomonas aeruginosa [1] = experiment: Antibacterial activity against Pseudomonas aeruginosa MTCC 424 at 500 ug/ml after 18 hr by cup-plate method; conditions: MTCC 424, 18 h, read-out: DIZ
Bacillus pumilus [2] = experiment: Antibacterial activity against Bacillus pumilus MTCC 1456 at 1000 ug/ml after 18 hr by cup-plate method; conditions: MTCC 1456, 18 h, read-out: DIZ
Aspergillus niger [3] = experiment: Antifungal activity against Aspergillus niger MTCC 2546 at 1500 ug/ml after 18 hr by cup-plate method; conditions: MTCC 2546, 18 h, read-out: DIZ
Aspergillus niger [4] = experiment: Antifungal activity against Aspergillus niger MTCC 2546 at 500 ug/ml after 18 hr by cup-plate method; conditions: MTCC 2546, 18 h, read-out: DIZ
Micrococcus luteus [5] = experiment: Antibacterial activity against Micrococcus luteus MTCC 1538 at 1500 ug/ml after 18 hr by cup-plate method; conditions: MTCC 1538, 18 h, read-out: DIZ
Pseudomonas fluorescens [6] = experiment: Antibacterial activity against Pseudomonas fluorescens MTCC 2421 after 24 hr by broth dilution method; conditions: MTCC 2421, 24 h
Bacillus subtilis [7] = experiment: Antibacterial activity against Bacillus subtilis MTCC 441 after 24 hr by broth dilution method; conditions: MTCC 441, 24 h
Pseudomonas aeruginosa [8] = experiment: Antibacterial activity against Pseudomonas aeruginosa MTCC 424 at 100 ug/ml after 18 hr by cup-plate method; conditions: MTCC 424, 18 h, read-out: DIZ
Aspergillus niger [9] = experiment: Antifungal activity against Aspergillus niger MTCC 2546 at 1000 ug/ml after 18 hr by cup-plate method; conditions: MTCC 2546, 18 h, read-out: DIZ
Pseudomonas aeruginosa [10] = experiment: Antibacterial activity against Pseudomonas aeruginosa MTCC 424 at 1000 ug/ml after 18 hr by cup-plate method; conditions: MTCC 424, 18 h, read-out: DIZ
Micrococcus luteus [11] = experiment: Antibacterial activity against Micrococcus luteus MTCC 1538 at 100 ug/ml after 18 hr by cup-plate method; conditions: MTCC 1538, 18 h, read-out: DIZ
Pseudomonas fluorescens [12] = experiment: Antibacterial activity against Pseudomonas fluorescens MTCC 2421 at 500 ug/ml after 18 hr by cup-plate method; conditions: MTCC 2421, 18 h, read-out: DIZ
Bacillus pumilus [13] = experiment: Antibacterial activity against Bacillus pumilus MTCC 1456 at 500 ug/ml after 18 hr by cup-plate method; conditions: MTCC 1456, 18 h, read-out: DIZ
Bacillus pumilus [14] = experiment: Antibacterial activity against Bacillus pumilus MTCC 1456 at 1500 ug/ml after 18 hr by cup-plate method; conditions: MTCC 1456, 18 h, read-out: DIZ
Bacillus pumilus [15] = experiment: Antibacterial activity against Bacillus pumilus MTCC 1456 after 24 hr by broth dilution method; conditions: MTCC 1456, 24 h
Escherichia coli [16] = experiment: Antibacterial activity against Escherichia coli MTCC 1573 at 500 ug/ml after 18 hr by cup-plate method; conditions: MTCC 1573, 18 h, read-out: DIZ
Micrococcus luteus [17] = experiment: Antibacterial activity against Micrococcus luteus MTCC 1538 at 500 ug/ml after 18 hr by cup-plate method; conditions: MTCC 1538, 18 h, read-out: DIZ
Staphylococcus aureus [18] = experiment: Antibacterial activity against Staphylococcus aureus MTCC 1430 after 24 hr by broth dilution method; conditions: MTCC 1430, 24 h
Bacillus subtilis [19] = experiment: Antibacterial activity against Bacillus subtilis MTCC 441 at 1000 ug/ml after 18 hr by cup plate method; conditions: MTCC 441, 18 h, read-out: DIZ
Escherichia coli [20] = experiment: Antibacterial activity against Escherichia coli MTCC 1573 after 24 hr by broth dilution method; conditions: MTCC 1573, 24 h
Micrococcus luteus [21] = experiment: Antibacterial activity against Micrococcus luteus MTCC 1538 at 200 ug/ml after 18 hr by cup-plate method; conditions: MTCC 1538, 18 h, read-out: DIZ
Aspergillus niger [22] = experiment: Antifungal activity against Aspergillus niger MTCC 2546 at 100 ug/ml after 18 hr by cup-plate method; conditions: MTCC 2546, 18 h, read-out: DIZ
Staphylococcus aureus [23] = experiment: Antibacterial activity against Staphylococcus aureus MTCC 1430 at 1000 ug/ml after 18 hr by cup-plate method; conditions: MTCC 1430, 18 h, read-out: DIZ
Escherichia coli [24] = experiment: Antibacterial activity against Escherichia coli MTCC 1573 at 1000 ug/ml after 18 hr by cup-plate method; conditions: MTCC 1573, 18 h, read-out: DIZ
Staphylococcus aureus [25] = experiment: Antibacterial activity against Staphylococcus aureus MTCC 1430 at 200 ug/ml after 18 hr by cup-plate method; conditions: MTCC 1430, 18 h, read-out: DIZ
Escherichia coli [26] = experiment: Antibacterial activity against Escherichia coli MTCC 1573 at 200 ug/ml after 18 hr by cup-plate method; conditions: MTCC 1573, 18 h, read-out: DIZ
Bacillus pumilus [27] = experiment: Antibacterial activity against Bacillus pumilus MTCC 1456 at 100 ug/ml after 18 hr by cup-plate method; conditions: MTCC 1456, 18 h, read-out: DIZ

C(=N\c1nc[nH]n1)/c1cccs1
zone of inhibition at 500 µg/mL (Pseudomonas aeruginosa [1]): 15 mm | zone of inhibition at 1000 µg/mL (Bacillus pumilus [2]): 17 mm | zone of inhibition at 1500 µg/mL (Aspergillus niger [3]): 19 mm | zone of inhibition at 500 µg/mL (Aspergillus niger [4]): 15 mm | zone of inhibition at 1500 µg/mL (Micrococcus luteus [5]): 22 mm | MIC (Pseudomonas fluorescens [6]): 300 µg/mL (≈ 1680 µM) | MIC (Bacillus subtilis [7]): 300 µg/mL (≈ 1680 µM) | zone of inhibition at 100 µg/mL (Pseudomonas aeruginosa [8]): 12 mm | zone of inhibition at 1000 µg/mL (Aspergillus niger [9]): 16 mm | zone of inhibition at 1000 µg/mL (Pseudomonas aeruginosa [10]): 18 mm | zone of inhibition at 100 µg/mL (Micrococcus luteus [11]): 13 mm | zone of inhibition at 500 µg/mL (Pseudomonas fluorescens [12]): 15 mm | zone of inhibition at 500 µg/mL (Bacillus pumilus [13]): 16 mm | zone of inhibition at 1500 µg/mL (Bacillus pumilus [14]): 18 mm | MIC (Bacillus pumilus [15]): 200 µg/mL (≈ 1120 µM) | zone of inhibition at 500 µg/mL (Escherichia coli [16]): 18 mm | zone of inhibition at 500 µg/mL (Micrococcus luteus [17]): 18 mm | MIC (Staphylococcus aureus [18]): 300 µg/mL (≈ 1680 µM) | zone of inhibition at 1000 µg/mL (Bacillus subtilis [19]): 16 mm | MIC (Escherichia coli [20]): 200 µg/mL (≈ 1120 µM) | zone of inhibition at 200 µg/mL (Micrococcus luteus [21]): 16 mm | zone of inhibition at 100 µg/mL (Aspergillus niger [22]): 11 mm | zone of inhibition at 1000 µg/mL (Staphylococcus aureus [23]): 18 mm | zone of inhibition at 1000 µg/mL (Escherichia coli [24]): 20 mm | zone of inhibition at 200 µg/mL (Staphylococcus aureus [25]): 13 mm | zone of inhibition at 200 µg/mL (Escherichia coli [26]): 16 mm | zone of inhibition at 100 µg/mL (Bacillus pumilus [27]): 13 mm
